{
  "source": "patent US11318141B2",
  "about": "“Methods and compositions related to STK1-targeted small molecules as antibiotic resistance breakers” (Ohio State Innovation Foundation, priority 2017, dated 2022)",
  "key": {"[1]": {"molecular_target": "S. aureus STKK1 (the soluble kinase domain of STK1, 280 aa) (Staphylococcus aureus, UniProt A0ABF7PGK0)", "sequence (A0ABF7PGK0 entry or part of it)": "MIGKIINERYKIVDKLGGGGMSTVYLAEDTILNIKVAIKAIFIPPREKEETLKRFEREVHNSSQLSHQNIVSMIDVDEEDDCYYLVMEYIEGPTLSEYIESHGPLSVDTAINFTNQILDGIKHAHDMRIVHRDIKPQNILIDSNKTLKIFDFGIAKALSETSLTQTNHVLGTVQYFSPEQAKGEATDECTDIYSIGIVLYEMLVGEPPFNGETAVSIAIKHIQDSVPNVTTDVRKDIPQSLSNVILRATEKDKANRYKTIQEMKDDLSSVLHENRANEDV", "assay": "In vitro kinase assay: inhibition of autophosphorylation of recombinant STKK1 (γ32P-ATP)", "format": "biochemical", "conditions": "after 5 min pre-incubation", "experimental": "For the present study, recombinant His-tag-STKK1 was created along with part of the adjacent juxta-membrane domain (1-280 aa) using the pET14b vector system and specific primers (Table-1 and Table-2) as described previously. The recombinant proteins were expressed in BL21 DE3 (pLysS) and purified using Ni^+2-NTA-affinity chromatography, dialyzed against 10 mM Tris/HCl, pH 7.5, and stored as 10% glycerol stock (500 μg/ml) at −20° C. as described previously. In vitro kinase assays were performed using 2 μg STKK1 in the presence of 1 μCi γ^32P-ATP (specific activity 3000 Ci/mMol, PerkinElmer) at 30° C. for 45 min in a final volume of 30 μl phosphorylation buffer (50 mM Tris/HCl, pH7.5, 1 mM dithiothreitol, 5 mM MgCl2, and/or 5 mM MnCl2). The inhibition of autophosphorylation of STKK1 was carried out using this assay in the presence and absence of (50 μM) individual members of the 32 prescreened small molecule compound library. Phosphorylated proteins were separated by SDS-PAGE and subsequently identified by using Coomassie stain and autoradiography. The individual phosphorylated protein bands were then excised and subjected to radioactive counting using beta-scintillation counter for quantitative analysis. Experiments were repeated at least three times for statistical analysis."}, "[2]": {"system": "S. aureus MW2-WT", "assay": "microbe, parasite or virus in culture", "format": "cell-based, Staphylococcus aureus", "conditions": "E-test, 50 μM Inh2-B1, 6 antibiotics"}, "[3]": {"system": "S. aureus MW2 wild-type biofilms", "assay": "Biofilm formation, crystal violet stain method", "format": "cell-based, Staphylococcus aureus", "conditions": "25 μM", "experimental": "(§1) The ability to form biofilms by S. aureus MW2 strain in the absence and presence of Inh2-B1 was determined using the crystal violet stain method. Briefly, the assay was carried out in 24-well tissue culture plates in a final volume of 500 μl of TSB broth with or without Inh2-B1 (25 μM). The culture plates were then seeded with 1:1000 dilution of the freshly grown S. aureus cultures to late log phase (O.D600=0.8) and further incubated for 48 h. At the end of incubation, the culture medium from each well was carefully removed and stained with 1% Crystal violet for 5 min. The unbound stain was then removed by repeated washings with distilled water and air dried. The stained biofilms were then extracted and dissolved in 500 μl 100% of isopropanol. Aliquots of fully suspended biofilms (100 μl/well) in isopropanol from each well were spectrophotometrically (λ=550 nm) analyzed using a microtiter plate reader (Molecular Devices). The test samples were analyzed after subtracting the background values obtained from wells containing an only medium. All results were obtained with three independent cultures each in three wells. In another set of experiments. Inh2-B1 (25 μM) was added to the 48 h-grown established biofilms of S. aureus MW2 to determine the impact of Inh2-B1 on the preformed biofilms and its ability to disrupt or further formation of biofilms. For this, old medium was carefully removed to allow the minimal loss of the loosely attached apical part of the preformed biofilms and replace with 2 ml of fresh TSB medium with or without 25 μM Inh2-B1 inhibitor and incubated further for 48 h at 37° C. Subsequently, the biofilm formation or its disruption was quantitatively estimated as described above and statistically evaluated."}, "[4]": {"system": "S. aureus MW2ΔSTP1 biofilms", "assay": "Biofilm formation, crystal violet stain method", "format": "cell-based, Staphylococcus aureus", "conditions": "25 μM", "experimental": "as §1"}, "[5]": {"system": "S. aureus MW2-WT, MW2ΔSTK1 and MW2ΔSTP1 colonies", "assay": "Colony hemolysis pattern on TSA blood agar plates", "format": "cell-based, Staphylococcus aureus", "conditions": "50 μM Inh2-B1, MW2-WT, MW2ΔSTK1 or MW2ΔSTP1", "excerpt": "See the increased hemolysis around the colonies of the MW2ΔSTK1 mutant and absence of hemolysis around those of MW2ΔSTP1 mutant as depicted in the enlarged portion of certain representative colonies shown under each panel of the strain. A one centimeter bar is included to facilitate the determination of the relative size of colonies and corresponding hemolytic zones around them."}},
  "data": [
    {"smiles": "COC(=O)c1ccc2c(=O)[nH]c3c(C(=O)Nc4ccccc4)sc(=S)n3c2c1", "note": "[Inh2-B1, Methyl 5-oxo-3-(phenylcarbamoyl)-1-thioxo-4,5dihydro[1,3]thiazolo[3,4-a]quinazoline-8-carboxylate]", "values": [
      {"measurement": "IC50", "setting": "[1]", "result": 49, "unit": "µM"},
      {"measurement": "effect on susceptibility patterns of antibiotics other than cell wall acting ones", "setting": "[2]", "result": "did not change susceptibility patterns"},
      {"measurement": "biofilm formation in the presence of Inh2-B1", "setting": "[3]; 48 h", "result": "significantly decreased formation of biofilms"},
      {"measurement": "effect on preformed biofilms", "setting": "[3]; further 48 h", "result": "significant reduction in biofilm formation"},
      {"measurement": "biofilm formation in the presence of Inh2-B1", "setting": "[4]; 48 h", "result": "significantly decreased formation of biofilms"},
      {"measurement": "effect on preformed biofilms", "setting": "[4]; further 48 h", "result": "significant reduction in biofilm formation"},
      {"measurement": "hemolysis pattern of colonies", "setting": "[5]", "result": "did not show any changes in the hemolysis pattern"}
    ]}
  ]
}
